For data set [1], the system named is bone marrow derived macrophages (BMMs). The data set can be described thus: FRET assay for antigen cytosolic transfer (CCF4-AM/β-lactamase) in bone marrow derived macrophages. To be noted: for transfer of β-lactamase to the cytosol (450/535 nm ratio, CCF4 cleavage): compound 15 minutes at 37°C (AACOCF3 0.25mM, baïcalein 1mM, indomethacin 1mM, sulindac sulphide 1mM, ICI192605 1mM, arachidonic acid 80µM), then 1 mg/ml β-lactamase 90 minutes at 37°C; for effect on indomethacin induced transfer of β-lactamase to the cytosol: indomethacin 1mM 15 minutes, then β-lactamase with wortmannin 0.5µM, radicicol 25µM or Pyr41 10µM for 90 minutes at 37°C; for reversal of inhibitor-induced antigen transfer to the cytosol (complementation): after indomethacin 1mM or AACOCF3 0.25mM, diMePGE2 or U46619 10µM added with β-lactamase for 90 minutes at 37°C. The class given is cell-based, C57/black-6 mice. The protocol:
Primary Cells and Mice - Bone marrow derived dendritic cells and macrophages were isolated by flushing femur and tibia from 6 to 9 weeks old C57/black-6 mice with ROSWELL PARK MEMORIAL INSTITUTE-1640 (RPMI-1640) supplemented with GLUTAMAX using 5 ml syringes (BD PLASTIPAK) and 0.5 x 16 mm needles 25G 5/8 (BD MicroLance). After centrifugation at 1000 rpm for 4 minutes, cells were resuspended in 1.66% NH4Cl, and put at 4°C for 10 minutes. After centrifugation at 1,000 rpm for 4 minutes, cells were quantified and incubated at 37°C/5% CO2 for 7 to 10 days in RPMI-1640 with GLUTAMAX containing 10% v/v fetal calf serum (GIBCO) and 50µg/ml penicillin/streptomycin (GIBCO). Granulocytes and macrophages-colony stimulating factor (GM-CSF, MILTENIY BIOTEC) and macrophages-colony stimulating factor (M-CSF, PREPROTECH) were added at day 0 at a concentration of 50 ng/ml in order to allow dendritic cells or macrophages differentiation. Dendritic cells were replated every 3 days adding each time fresh GM-CSF. Macrophages were supplemented with fresh M-CSF at day 4 and replated at day 7 with M-CSF at 25ng/ml. Plasmacytoïd and conventional dendritic cells were isolated from C57/black-6 mice spleen using a plasmacytoïd dendritic cell isolation kit (MILTENYI BIOTEC) and a CD8+ dendritic cell isolation kit (MILTENYI BIOTEC). BMDCs, pDCs and cDCs were adhered on 0.01% poly-lysine coated plates in phosphate buffer saline (PBS).
(§1) FRET assay for antigen cytosolic transfer - 30,000 to 50,000 cells were seeded on 96 well plates and loaded in a mix containing 3.3µM CCF4-AM (INVITROGEN), 1mM probenecid (SIGMA) and 1.5µl solution B (INVITROGEN) in EM buffer (120mM NaCl, 7mM KCI, 1.8mM CaCl2, 0.8mM MgCl2, 5mM glucose and 25mM HEPES at pH 7.3) in a final volume of 30 µl at 37°C. Following 1 mg/ml β-lactamase incubation in EM buffer, cells were washed with 1mM PBS/probenecid and imaged in EM buffer containing 1mM probenecid.
(§2) Fluorescence microscopy and image analysis - All acquisitions were performed on a NIKON TI WIDEFIELD microscope with a 20X N-Plan Objective. Experiments in triplicates were repeated at least 3 times independently for each condition using 25 pictures per replicate randomly and automatically. Image analysis was performed using custom-designed algorithms as described in Ray et al. 2010 (Cell Microbiol. 12(4): 545-556) and Simeone et al. 2012 (PLoS Pathog. 8(2): e1002507). Briefly, the 450 and 535 nm emission signals were scored automatically for each individual cells on a large set of images using METAMORPH. The quantitative parameters were then exported as an EXCEL file in which the ratio between the intensity of the 450 and 535 nm emission signals were presented as an average of the ratio in the whole cell population. After algorithm processing, mean ratios 450/535 nm from different replicates were obtained and pooled together as an average and the status of cytosolic transfer was assessed. Error bars represent standard deviation.

The conditions of data set [2]: at 37°C; cited from earlier work.
In data set [3] the test system is HeLa cells. Briefly: FRET assay for antigen cytosolic transfer (CCF4-AM/β-lactamase) in HeLa cells. It counts as cell-based. The settings on record: indomethacin 1mM 15 minutes at 37°C, 1 mg/ml β-lactamase 90 minutes.
Data set [4] relates to BV2 macrophages-like cells. Briefly: FRET assay for antigen cytosolic transfer (CCF4-AM/β-lactamase) in BV2 macrophage like cells. It counts as cell-based, Murine. To be noted: indomethacin 1mM 15 minutes; for indomethacin induced transfer of β-lactamase adsorbed to beads or expressed by E. coli: increasing amount of beads adsorbed or E. coli expressed β-lactamase at 37°C for 90 minutes; for indomethacin induced cytosolic transfer as a function of external β-lactamase concentration: increasing amount of β-lactamase at 37°C for 90 minutes. On the procedure: Cell lines - Murine Raw and BV2 macrophages like cells were cultured in RPMI-1640 with GLUTAMAX (GIBCO) containing 10% v/v fetal calf serum (GIBCO) and 50 µg/ml penicillin/streptomycin (GIBCO). B3Z were cultured in the same medium but supplemented with 1mg/ml G418 (SIGMA) and 0.4 mg/ml hygromycin B (SIGMA). JAWS-II cells were cultured in Iscove's Modified Dulbecco's Media (IMDM) with L-Glutamine and 25mM HEPES containing 10% v/v fetal calf serum (GIBCO), 50 µg/ml penicillin/streptomycin (GIBCO) and 5ng/ml GM-CSF. All cell lines were maintained at 37°C and 5% CO2.
Preparation of beads and bacteria - E. coli DH5α were used expressing β-lactamase from a pBAD18 plasmid. After PBS washing, bacteria were re-suspended in EM buffer and the MOI was calibrated by measuring the absorbance of the overnight culture at OD 600nm. 3µm polystyrene beads (TEBU-BIO) were washed once before adsorption with β-lactamase at 4°C on a rotating wheel overnight. After PBS washing, beads were re-suspended in PBS buffer.
as §1, §2

Data set [5] deals with bone marrow derived macrophages (BMMs). The data set can be described thus: Cytosolic delivery of fluorescent antigens (Cy3-dextran, Cy3-β-lactamase, Cy3) by widefield microscopy. It counts as cell-based, C57/black-6 mice. To be noted: indomethacin 1mM 15 minutes; for transfer of fluorescent dextran to the cytosol: 10-kDa Cy3-dextran 1 mg/ml for 90 minutes; for transfer of Cy3-labelled β-lactamase to the cytosol: Cy3-Bla 0.2 mg/ml for 90 minutes.

Data set [6] concerns bone marrow derived dendritic cells (BMDCs). Briefly: B3Z cross-priming experiments (cross-presentation of ovalbumin). The class given is cell-based, C57/black-6 mice. To be noted: 15 minutes indomethacin 1mM or lactacystine 3µM, serial dilutions of ovalbumin 4 hours, B3Z hybridoma cells 1:1 overnight. On the procedure:
B3Z cross-priming experiments - 50,000 BMDCs per well were seeded on poly-L-lysine coated 96 well plates. After treatment with DMSO, 3µM lactacystine, or 1mM indomethacin for 15 minutes in RPMI-1640 complemented with 10% v/v fetal calf serum and 50 µg/ml penicillin/streptomycin at 37°C, cells were incubated with serial dilutions (from 3 to 0.0275 mg/ml) of ovalbumin (EUROMEDEX) for 4 hours. Triplicates were performed for each concentration and serial dilutions of the SIINFEKL 257-264 peptide (POLYPEPTIDE GROUP) were used as positive control (dilutions 1/10 starting from 0.1µg/ml). After 3 washes, cells are incubated overnight with 50,000 B3Z hybridoma cells at 37°C, washed once and subjected to the chlorophenol red-D-galactopyranoside (CPRG) detergent mix containing 100mM β-mercaptoethanol, 100mM MgCl2, 0.125% NP40 and 0.15mM CPRG at 37°C for 4 hours. OD 492 as indicator of β-galactosidase (lacZ) activity produced under the control of the interleukin 2 promoter was subsequently measured by plate reader. Data were obtained from 3 independent experiments and plotted by GRAPHPAD PRISM (error bars: standard deviation).

SMILES strings stand for the structures. Entries after “also recorded” stand apart in the source; their conditions may differ.

For the molecule `CCCCC/C=C\C/C=C\C/C=C\C/C=C\CCCC(=O)C(F)(F)F` [AACOCF3, 1,1,1-trifluoro-6Z,9Z,12Z,15Z-heneicosatetraen-2-one], in data set [1], the “transfer of β-lactamase to the cytosol (450/535 nm ratio, CCF4 cleavage)” value (shortened to “transfer … (450/535 nm ratio, CCF4 cleavage)”) was “dramatically and robustly boosted transfer of the model antigen β-lactamase to the cytosol”.

For the molecule `O=C(O)CC/C=C\CC1COC(c2ccccc2Cl)OC1c1ccccc1O` (stereo not drawn) [ICI192605, 4-(Z)-6-(2-o-Chlorophenyl-4-o-hydroxyphenyl-1,3-dioxan-cis-5-yl)hexenoic acid], the “transfer … (450/535 nm ratio, CCF4 cleavage)” value in data set [1] is “led to a robust antigen transfer”.

Consider `CCCCC[C@H](O)/C=C/[C@H]1[C@H](O)CC(=O)[C@@H]1C/C=C\CCCC(=O)O` [PGE2, prostaglandin E2], for which the half-life entry in data set [2] was “less than one minute”.

In the case of `CCOC(=O)c1ccc(N2NC(=O)/C(=C/c3ccc([N+](=O)[O-])o3)C2=O)cc1` [Pyr41], the “effect on indomethacin induced transfer of β-lactamase to the cytosol” value in data set [1] is “decreased cytosolic antigen transfer induced by indomethacin; also recorded: restrained”.

Take `CCCCC[C@H](O)/C=C/[C@H]1O[C@H]2C[C@H](O2)[C@@H]1C/C=C\CCCC(=O)O` [TXA2, Thromboxane A2]: in data set [2], the half-life entry is “less than one minute”.

On to `CCCCC[C@H](O)/C=C/[C@@H]1[C@@H](C/C=C\CCCC(=O)O)[C@H]2CO[C@@H]1C2` [U46619], for which the “reversal of inhibitor-induced antigen transfer to the cytosol (complementation)” value in data set [1] is “reduced the inhibitor-induced antigen transfer to the cytosol”.

On to `CCCCC/C=C\C/C=C\C/C=C\C/C=C\CCCC(=O)O` [arachidonic acid], for which the “transfer … (450/535 nm ratio, CCF4 cleavage)” value in data set [1] is reported as “triggered cytosolic access of our model antigen β-lactamase”.

Regarding `C/C=C/[C@H]1O[C@@](O)([C@@H](C)[C@H](O)[C@H](C)[C@H]2OC(=O)/C(OC)=C/C(C)=C/[C@@H](C)[C@@H](O)[C@@H](C)[C@@H](O)[C@H](C)C/C(C)=C/C=C/[C@@H]2OC)C[C@@H](O[C@H]2C[C@@H](O)[C@H](OC(N)=O)[C@@H](C)O2)[C@@H]1C` [conB, Concanamycin B], the “cytosolic transfer of β-lactamase on increased endosomal antigen stability” value in data set [1] (concanamycin B 25nM or protease inhibitors 1X with β-lactamase for 90 minutes at 37°C) is recorded as “neither conB nor PI incubation led to any cytosolic transfer of β-lactamase”.

For the molecule `CCCCC(C)(C)[C@H](O)/C=C/[C@H]1[C@H](O)CC(=O)[C@@H]1C/C=C\CCCC(=O)O` [dimethylPGE2, dimethyl-prostaglandin E2], the “reversal of inhibitor-induced antigen transfer to the cytosol (complementation)” value in data set [1] is reported as “did not lead to a reversal of the effect of antigen transfer to the cytoplasm”.

As to `COc1ccc2c(c1)c(CC(=O)O)c(C)n2C(=O)c1ccc(Cl)cc1` [indomethacin, 1-(4-chlorobenzoyl)-5-methoxy-2-methyl-1H-indole-3-acetic acid], the “transfer … (450/535 nm ratio, CCF4 cleavage)” value in data set [1] is reported as “led to a robust cytosolic transfer of beta-lactamase”. Besides, the results for the “transfer of β-lactamase to the cytosol in HeLa cells” value in data set [3] and in data set [3] (listed as Indomethacin) were “no cytosolic β-lactamase delivery” and “does not trigger the transfer of β-lactamase to the cytosol”, respectively. The “indomethacin induced transfer of β-lactamase adsorbed to beads or expressed by E. coli” value in data set [4] is given as “same dose-dependency”; in data set [4] (listed as Indomethacin), “is also able to trigger the transfer of β-lactamase when adsorbed to beads or expressed by E. coli in BV2 macrophages-like cells in a dose dependent manner”. Further, the “indomethacin induced cytosolic transfer as a function of external β-lactamase concentration” value was “dose-dependent on the external concentration of β-lactamase” in data set [4] and “depends on the external concentration of β-lactamase” in data set [4] (listed as Indomethacin). In addition, the “transfer of fluorescent dextran to the cytosol” value in data set [5] was “the staining switched to cytosolic staining”; in data set [5] (listed as Indomethacin), “triggers the transfer of Cy3 labeled β-lactamase, dextran and Cy3 to the cytosol”. For the same molecule, in data set [5] (Cy3 0.2 mg/ml for 90 minutes, listed as Indomethacin), the “transfer of Cy3 alone to the cytosol” value is “triggers the transfer of Cy3 labeled β-lactamase, dextran and Cy3 to the cytosol”. Moreover, the “transfer of Cy3-labelled β-lactamase to the cytosol” value in data set [5] was “induced not only the transfer of Cy3-labelled β-lactamase”; in data set [5] (listed as Indomethacin), “triggers the transfer of Cy3 labeled β-lactamase, dextran and Cy3 to the cytosol”. Besides, the results for the “cross-presentation of ovalbumin (B3Z lacZ activity, CPRG)” value in data set [6] and in data set [6] (listed as Indomethacin) were “displayed enhanced capacities for cross-priming compared to the DMSO control” and “promotes cross-presentation of ovalbumin”, respectively.

Turning to `CC(=O)N[C@@H](CSC(=O)[C@]1([C@@H](O)C(C)C)NC(=O)[C@H](C)[C@@H]1O)C(=O)O` [lactacystin], the “cross-presentation of ovalbumin (B3Z lacZ activity, CPRG)” value in data set [6] is “do not cross-present ovalbumin”.

Take `C[C@@H]1C[C@H]2O[C@@H]2/C=C\C=C\C(=O)Cc2c(Cl)c(O)cc(O)c2C(=O)O1` [radicicol]: the “effect on indomethacin induced transfer of β-lactamase to the cytosol” value in data set [1] was “restrained”.

These data come from EP3037106A1, “TXA2 inhibitor as stimulator or inducer of MHC Class I cross-presentation” (INSTITUT PASTEUR, priority 2014, dated 2016).
